Like-named read-outs stand apart in the source and are kept apart here.
Experiments:
bCA IV = biological target: T1, bCA IV (Bos taurus, UniProt Q95323); assay: CA esterase activity assay, isozyme bCA IV; type: biochemical, bovine; settings: read-out: KI bCA IV
T1 construct: CA IV was isolated from bovine lung microsomes as described by Maren et al; from tissue; host or cells: bovine lung microsomes
T1 sequence (Q95323 19-284): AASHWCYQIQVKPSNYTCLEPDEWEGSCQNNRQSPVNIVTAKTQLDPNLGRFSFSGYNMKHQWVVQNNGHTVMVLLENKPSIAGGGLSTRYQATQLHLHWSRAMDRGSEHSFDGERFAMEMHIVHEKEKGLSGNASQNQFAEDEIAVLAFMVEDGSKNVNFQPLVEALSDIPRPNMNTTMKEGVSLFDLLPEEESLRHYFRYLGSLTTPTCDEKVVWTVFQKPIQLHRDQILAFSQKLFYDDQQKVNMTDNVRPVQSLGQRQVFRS

hCA IX = hCA IX (Homo sapiens, UniProt Q16790); assay: CA CO2 hydrase activity assay, tumor-associated isozyme hCA IX
Experimental: An SX.18MV-R Applied Photophysics stopped-flow instrument has been used for assaying the CA CO2 hydration activity assays [44]. […] Inhibitor and enzyme solutions were preincubated together for 10 min at room temperature prior to assay, in order to allow for the formation of the E-I complex.

hCA I = biological target: T2, hCA I (Homo sapiens, UniProt P00915); assay: CA esterase activity assay, isozyme hCA I; type: biochemical
T2 construct: made in house; host or cells: Escherichia coli BL21 (DE3)
T2 sequence (P00915 whole entry): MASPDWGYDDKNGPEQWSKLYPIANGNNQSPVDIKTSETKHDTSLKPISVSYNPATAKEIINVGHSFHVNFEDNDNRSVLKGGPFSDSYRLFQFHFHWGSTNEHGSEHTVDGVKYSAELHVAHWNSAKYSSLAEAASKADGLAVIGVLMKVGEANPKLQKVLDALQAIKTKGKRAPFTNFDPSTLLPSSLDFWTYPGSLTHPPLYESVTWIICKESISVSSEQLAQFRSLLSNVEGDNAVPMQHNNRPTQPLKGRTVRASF
Experimental: (§1) Human CA I and CA II cDNAs were expressed in Escherichia coli strain BL21 (DE3) from the plasmids pACA/hCA I and pACA/hCA II described by Lindskog's group [54].
(§2) Non-enzymatic hydrolysis rates were always subtracted from the observed rates. […] Inhibitor and enzyme solutions were preincubated together for 10 min at room temperature prior to assay, in order to allow for the formation of the E-I complex. The inhibition constant KI was determined as described in references [44, 76].

hCA II = biological target: T3, hCA II (Homo sapiens, UniProt P00918); assay: CA esterase activity assay, isozyme hCA II; type: biochemical
T3 construct: made in house; host or cells: Escherichia coli BL21 (DE3)
Experimental: as §1, §2

[1] = Table 1, isolated from bovine lung microsomes, esterase assay method
[2] = read-out: KI hCA IX, Table 1, human cloned isozyme, CO2 hydrase assay method
[3] = Table 1, human cloned isozymes, esterase assay method, read-out: KI hAC I
[4] = Table 2, from bovine lung microsomes
[5] = read-out: KI hCA IX, Table 2, catalytic domain of the human, cloned isozyme
[6] = Table 2, human (cloned) isozymes, read-out: KI hCA II
[7] = Table 2, human (cloned) isozymes, read-out: KI hCA I

Ki (bCA IV; [4]) [nM] | Ki (hCA IX; [5]) [nM] | Ki (hCA II; [6]) [nM] | Ki (hCA I; [7]) [nM] | SMILES | further results
 |  |  |  | CCN[C@H]1CN(CCCOC)S(=O)(=O)c2sc(S(N)(=O)=O)cc21 [BRZ, brinzolamide, reference compound] | Ki (bCA IV; [1]): 45 nM
 |  |  |  | Nc1ccccc1S(N)(=O)=O [Compound 1] | Ki (bCA IV; [1]): 1310 nM; Ki (hCA IX; [2]): 33 nM
 |  |  |  | Nc1ccc(S(N)(=O)=O)cc1 [Compound 3, sulfanilamide] | Ki (bCA IV): 3000 nM
 |  |  |  | NNc1ccc(S(N)(=O)=O)cc1 [Compound 4, 4-hydrazino-benzenesulfonamide] | Ki (bCA IV; [1]): 3220 nM; Ki (hCA I; [3]): 78500 nM
 |  |  |  | NCc1ccc(S(N)(=O)=O)cc1 [Compound 5, homosulfanilamide] | Ki (hCA IX; read-out: KI hCA IX): 103 nM
 |  |  |  | Nc1ccc(S(N)(=O)=O)cc1F [Compound 7] | Ki (bCA IV; [1]): 180 nM; Ki (hCA IX; [2]): 245 nM
 |  |  |  | Nc1ccc(S(N)(=O)=O)cc1Cl [Compound 8] | Ki (hCA IX; [2]): 264 nM
 |  |  |  | Nc1ccc(S(N)(=O)=O)cc1Br [Compound 9] | Ki (bCA IV; [1]): 66 nM
 |  |  |  | Nc1ccc(S(N)(=O)=O)cc1I [Compound 10] | Ki (bCA IV; [1]): 125 nM; Ki (hCA IX; [2]): 285 nM; Ki (hCA I; [3]): 6000 nM
 |  |  |  | Nc1cc(C(F)(F)F)c(S(N)(=O)=O)cc1S(N)(=O)=O [Compound 11] | Ki (bCA IV; [1]): 154 nM
 |  |  |  | Cn1nc(S(N)(=O)=O)sc1=N [Compound 14] | Ki (hCA IX; [2]): 30 nM
 |  |  |  | Nc1ccc(S(=O)(=O)Nc2ccc(S(N)(=O)=O)cc2)cc1 [Compound 16] | Ki (bCA IV; [1]): 129 nM; Ki (hCA IX; [2]): 34 nM
 |  |  |  | Nc1ccc(S(=O)(=O)Nc2ccccc2S(N)(=O)=O)cc1 [Compound 17] | Ki (bCA IV; [1]): 144 nM; Ki (hCA I; [3]): 185 nM
 |  |  |  | Nc1ccc(S(=O)(=O)NCc2ccc(S(N)(=O)=O)cc2)cc1 [Compound 18] | Ki (bCA IV; [1]): 72 nM
 |  |  |  | Nc1ccc(S(=O)(=O)NCCc2ccc(S(N)(=O)=O)cc2)cc1 [Compound 19] | Ki (bCA IV; [1]): 72 nM; Ki (hCA IX; [2]): 24 nM
 |  |  |  | Nc1nccc(Nc2ccc(S(N)(=O)=O)cc2)n1 [Compound 20] | Ki (bCA IV; [1]): 154 nM; Ki (hCA IX; read-out: KI against CA IX, text discussion of Tables 1-3): 16 to 32 nM; Ki (hCA IX; [2]): 16 nM
 |  |  |  | NS(=O)(=O)c1cccc2cccnc12 [Compound 22] | Ki (bCA IV; [1]): 415 nM; Ki (hCA IX; [2]): 32 nM
 |  |  |  | NS(=O)(=O)c1cccc2ccccc12 [Compound 23] | Ki (bCA IV; [1]): 438 nM; Ki (hCA IX; [2]): 30 nM
 |  |  |  | NS(=O)(=O)c1ccc(CO)cc1 [Compound 24] | Ki (hCA IX; [2]): 21 nM
 |  |  |  | NS(=O)(=O)c1ccc(CCO)cc1 [Compound 25] | Ki (bCA IV; [1]): 450 nM; Ki (hCA IX; [2]): 22 nM
 |  |  |  | NS(=O)(=O)c1ccc(C(=O)O)cc1 [Compound 26] | Ki (bCA IV; [1]): 86 nM; Ki (hCA IX; [2]): 26 nM
290 | 165 | 150 | 10000 | Cc1cc(C)[n+](-c2ccc(S(N)(=O)=O)cc2)c(C)c1 [Compound 27] | Ki (hCA IX): 160 to 450 nM
211 | 48 | 60 | 7000 | Cc1cc(-c2ccccc2)cc(C)[n+]1-c1ccc(S(N)(=O)=O)cc1 [Compound 28] | Ki (hCA IX): 6 to 54 nM
182 | 43 | 60 | 6000 | CCc1cc(-c2ccccc2)cc(CC)[n+]1-c1ccc(S(N)(=O)=O)cc1 [Compound 29] | Ki (hCA IX; KI against CA IX, text discussion of Tables 1-3): 6 to 54 nM
194 | 178 | 120 | 10000 | CCCc1cc(-c2ccccc2)cc(CCC)[n+]1-c1ccc(S(N)(=O)=O)cc1 [Compound 30] | 
90 | 160 |  | 5000 | CC(C)c1cc(-c2ccccc2)cc(C(C)C)[n+]1-c1ccc(S(N)(=O)=O)cc1 [Compound 31] | 
852 | 280 | 210 | 40000 | Cc1cc(-c2ccccc2)cc(-c2ccccc2)[n+]1-c1ccc(S(N)(=O)=O)cc1 [Compound 32] | 

Ki (bCA IV; [4]) [nM] | Ki (hCA IX; [5]) [nM] | Ki (hCA II; [6]) [nM] | Ki (hCA I; [7]) [nM] | SMILES | further results
1300 | 450 | 400 | 43000 | CCc1cc(-c2ccccc2)cc(-c2ccccc2)[n+]1-c1ccc(S(N)(=O)=O)cc1 [Compound 33] | 
1480 |  | 580 | 140000 | CCCc1cc(-c2ccccc2)cc(-c2ccccc2)[n+]1-c1ccc(S(N)(=O)=O)cc1 [Compound 34] | 
2100 |  | 440 | 125000 | CC(C)c1cc(-c2ccccc2)cc(-c2ccccc2)[n+]1-c1ccc(S(N)(=O)=O)cc1 [Compound 35] | 
2160 |  | 620 | 305000 | CCCCc1cc(-c2ccccc2)cc(-c2ccccc2)[n+]1-c1ccc(S(N)(=O)=O)cc1 [Compound 36] | 
2500 |  |  | 290000 | NS(=O)(=O)c1ccc(-[n+]2c(-c3ccccc3)cc(-c3ccccc3)cc2-c2ccccc2)cc1 [Compound 37] | Ki (hCA II; read-out: KI hCA II): 510 nM
61 | 72 | 40 | 5000 | Cc1cc(C)[n+](-c2ccc(S(N)(=O)=O)cc2)c(C)c1C [Compound 38] | Ki (hCA IX): 64 to 135 nM
80 | 42 | 50 | 6000 | Cc1cc(C)[n+](Cc2ccc(S(N)(=O)=O)cc2)c(C(C)C)c1 [Compound 40] | 
144 | 54 | 80 | 11000 | Cc1cc(C(C)C)[n+](Cc2ccc(S(N)(=O)=O)cc2)c(C(C)C)c1 [Compound 41] | 
70 | 26 |  | 4000 | Cc1cc(-c2ccccc2)cc(C)[n+]1Cc1ccc(S(N)(=O)=O)cc1 [Compound 42] | 
52 | 29 | 21 | 2000 | CCc1cc(-c2ccccc2)cc(CC)[n+]1Cc1ccc(S(N)(=O)=O)cc1 [Compound 43] | 
163 | 230 | 90 | 24000 | CCCc1cc(-c2ccccc2)cc(CCC)[n+]1Cc1ccc(S(N)(=O)=O)cc1 [Compound 44] | Ki (hCA IX): 160 to 450 nM
 | 100 | 61 | 12000 | CC(C)c1cc(-c2ccccc2)cc(C(C)C)[n+]1Cc1ccc(S(N)(=O)=O)cc1 [Compound 45] | 
161 | 64 |  | 32000 | Cc1cc(-c2ccccc2)cc(-c2ccccc2)[n+]1Cc1ccc(S(N)(=O)=O)cc1 [Compound 46] | Ki (hCA II; read-out: KI hCA II): 121 nM
983 | 79 | 314 | 42000 | CCc1cc(-c2ccccc2)cc(-c2ccccc2)[n+]1Cc1ccc(S(N)(=O)=O)cc1.[O-][Cl+3]([O-])([O-])[O-] [Compound 47] | 
1260 | 85 | 390 | 130000 | CCCc1cc(-c2ccccc2)cc(-c2ccccc2)[n+]1Cc1ccc(S(N)(=O)=O)cc1 [Compound 48] | 
 | 80 | 370 | 112000 | CC(C)c1cc(-c2ccccc2)cc(-c2ccccc2)[n+]1Cc1ccc(S(N)(=O)=O)cc1 [Compound 49] | 
2100 | 135 | 595 | 300000 | CCCCc1cc(-c2ccccc2)cc(-c2ccccc2)[n+]1Cc1ccc(S(N)(=O)=O)cc1.[O-][Cl+3]([O-])([O-])[O-] [Compound 50] | 
 |  | 321 | 110000 | CC(C)(C)c1cc(-c2ccccc2)cc(-c2ccccc2)[n+]1Cc1ccc(S(N)(=O)=O)cc1 [Compound 51] | Ki (bCA IV): 1070 nM
 | 14 |  |  | Cc1cc(C)[n+](CCc2ccc(S(N)(=O)=O)cc2)c(C)c1.[O-][Cl+3]([O-])([O-])[O-] [Compound 55] | 
 | 89 | 21 | 6000 | CC(C)c1cc(-c2ccccc2)cc(C(C)C)[n+]1CCc1ccc(S(N)(=O)=O)cc1 [Compound 61] | Ki (hCA IX): 64 to 135 nM
 | 37 | 103 | 18000 | Cc1cc(-c2ccccc2)cc(-c2ccccc2)[n+]1CCc1ccc(S(N)(=O)=O)cc1 [Compound 62] | Ki (hCA IX): 6 to 54 nM
 | 70 | 220 | 40000 | CCc1cc(-c2ccccc2)cc(-c2ccccc2)[n+]1CCc1ccc(S(N)(=O)=O)cc1 [Compound 63] | 
1000 |  | 275 | 92000 | CC(C)(C)c1cc(-c2ccccc2)cc(-c2ccccc2)[n+]1CCc1ccc(S(N)(=O)=O)cc1 [Compound 67] | 
 | 95 | 419 | 270000 | NS(=O)(=O)c1ccc(CC[n+]2c(-c3ccccc3)cc(-c3ccccc3)cc2-c2ccccc2)cc1 [Compound 68] | Ki (hCA IX): 64 to 135 nM
 |  |  |  | Cc1cc(-c2ccccc2)[n+](-c2ccc(S(=O)(=O)Nc3nnc(S(N)(=O)=O)s3)cc2)c(-c2ccccc2)c1 [Compound 86] | Ki (hCA IX): 12 to 35 nM; Ki (hCA IX; read-out: KI hCA IX, Table 3, catalytic domain of the human, cloned isozyme, CO2 hydrase assay method): 12 nM; Ki (hCA II; Table 3, human (cloned) isozymes, esterase assay method, read-out: KI hCA II): 4.78 nM; Ki (hCA II; read-out: KI against CA II): 3.13 to 5.96 nM
65 |  |  |  | NS(=O)(=O)c1ccc(S(=O)(=O)Nc2cccc3c(Cl)c[nH]c23)cc1 [indisulam, reference compound] | Ki (bCA IV; Table 3, from bovine lung microsomes, esterase assay method): 65 nM

SMILES | Ki (bCA IV; [4]) [nM] | Ki (hCA IX; [5]) [nM] | Ki (hCA II; [6]) [nM] | Ki (hCA I; [7]) [nM] | further results
CC(C)c1cc(-c2ccccc2)cc(-c2ccccc2)[n+]1CCc1ccc(S(N)(=O)=O)cc1 [Compound 65] |  | 78 | 350 |  | Ki (hCA I; read-out: KI hCA I): 94000 nM
